From patent US20230081426A1, “COMPOUNDS AND METHODS FOR KRAS MODULATION AND INDICATIONS THEREFOR” (Plexxikon Inc., priority 2020, published 2023)

Assays:
[1] = target: T1, G12D-mutant human KRAS (amino acid residues 1-188) (Homo sapiens, UniProt P01116, G12D); assay: KRAS Binding Disruption Assay (AlphaScreen; biotinylated KRpep-2d analogue or RAF1-RBD), G12D; settings: KRAS G12D; geometric mean; read-out: KRAS GMean IC50 (uM) MUTATION: G12D
T1 construct: G12D or G12C-mutant human KRAS (amino acid residues 1-188) with FLAG tag; made in house; host or cells: E. coli
Outline: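 Displacement format with mutant KRAS, biotinylated KRpep-2d analogue or RAF1-RBD (5-20 nM each) at pH 7.5 with 5 mM MgCl2.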

[2] = target: T2, G12C-mutant human KRAS (amino acid residues 1-188) (Homo sapiens, UniProt P01116, G12C); assay: KRAS Binding Disruption Assay (AlphaScreen; biotinylated KRpep-2d analogue or RAF1-RBD), G12C; settings: geometric mean, read-out: KRAS GMean IC50 (uM) MUTATION: G12C
T2 construct: G12D or G12C-mutant human KRAS (amino acid residues 1-188) with FLAG tag; made in house; host or cells: E. coli
Description: Compound binding disrupts the interaction of KRpep-2d or RAF1-RBD with KRAS, leading to a decrease in Alpha signal.
All assay components were prepared in 20 mM HEPES (pH 7.5), 100 mM NaCl, 5 mM MgCl2, 0.01% Tween-20, and 0.01% BSA. Biotinylated analogues of KRpep-2d were custom synthesized. The binding disruption assays were performed using 5-20 nM of mutant KRAS and 5-20 nM of either biotinylated KRpep-2d analogue or RAF1-RBD. 19 μL of KRAS protein and 4 μL of biotinylated KRpep-2d or RAF1-RBD were added to the wells of a 384-well plate containing 1 μL of various concentrations of test compound or DMSO vehicle. 16 wells containing KRAS, biotinylated KRpep-2d or RAF1-RBD, and 5% DMSO served as high controls. 16 wells containing KRAS only and 5% DMSO served as low controls. Binding reactions were incubated for 1 hour at 25° C., then Anti-Flag Acceptor and Streptavidin Donor Alpha beads were added at a final concentration of 10 μg/mL for an additional hour at room temperature. Alpha signal was read out on a Perkin Elmer Envision HTS instrument. The percentage inhibition at individual compound concentrations relative to high and low controls was calculated. The data were analyzed by using nonlinear regression to generate IC50 values.

T2 sequence (P01116 1-188 isoform P01116-2 G12C): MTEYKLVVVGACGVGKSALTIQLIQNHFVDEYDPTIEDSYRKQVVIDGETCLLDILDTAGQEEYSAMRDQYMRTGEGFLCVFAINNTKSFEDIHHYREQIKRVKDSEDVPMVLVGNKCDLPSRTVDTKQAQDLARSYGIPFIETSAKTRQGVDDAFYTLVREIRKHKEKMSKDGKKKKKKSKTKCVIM
T1 sequence (P01116 1-188 isoform P01116-2 G12D): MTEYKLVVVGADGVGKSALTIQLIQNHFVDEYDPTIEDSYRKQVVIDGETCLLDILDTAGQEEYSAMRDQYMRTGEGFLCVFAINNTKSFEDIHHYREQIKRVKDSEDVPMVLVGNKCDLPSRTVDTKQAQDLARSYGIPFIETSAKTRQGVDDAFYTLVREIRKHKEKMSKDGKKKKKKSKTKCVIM

Row | IC50 [1] [µM] | IC50 [2] [µM] | Compound
1 | 0.0001 to 10 | 10 to 100 | CN(C)C1CN(c2nc(N3C[C@H]4CC[C@@H](C3)N4)c3ccc(-c4cc(O)cc5ccccc45)c(F)c3n2)C1 [P-0794, 4-(4-((1R,5S)-3,8-diazabicyclo[3.2.1]octan-3-yl)-2-(3-(dimethylamino)azetidin-1-yl)-8-fluoroquinazolin-7-yl)naphthalen-2-ol]
2 | 10 to 100 | 10 to 100 | CN1CCC[C@H]1COc1nc(N2C[C@H]3CC[C@@H](C2)N3)c2ccc(-c3nccc4cccc(C(F)(F)F)c34)c(F)c2n1 [P-0762, 4-((1R,5S)-3,8-diazabicyclo[3.2.1]octan-3-yl)-8-fluoro-2-(((S)-1-methylpyrrolidin-2-yl)methoxy)-7-(8-(trifluoromethyl)isoquinolin-1-yl)quinazoline]
3 | 0.0001 to 10 | 10 to 100 | Oc1cc(-c2ccc3c(N4C[C@H]5CC[C@@H](C4)N5)nc(OCCn4cccn4)nc3c2F)c2ccccc2c1 [P-0690, 4-(2-(2-(1H-pyrazol-1-yl)ethoxy)-4-((1R,5S)-3,8-diazabicyclo[3.2.1]octan-3-yl)-8-fluoroquinazolin-7-yl)naphthalen-2-ol]
4 | 0.0001 to 10 | 10 to 100 | O=C(O)COc1nc(N2C[C@H]3CC[C@@H](C2)N3)c2ccc(-c3cc(O)cc4ccccc34)c(F)c2n1 [P-0745, 2-((4-((1R,5S)-3,8-diazabicyclo[3.2.1]octan-3-yl)-8-fluoro-7-(3-hydroxynaphthalen-1-yl)quinazolin-2-yl)oxy)acetic acid]
5 | 0.0001 to 10 | 10 to 100 | Oc1cc(-c2ccc3c(N4C[C@H]5CC[C@@H](C4)N5)nc(CNC4CC4)nc3c2)c2ccccc2c1 [P-0673, 4-(4-((1R,5S)-3,8-diazabicyclo[3.2.1]octan-3-yl)-2-((cyclopropylamino)methyl)quinazolin-7-yl)naphthalen-2-ol]
6 | 0.0001 to 10 | 10 to 100 | Oc1cc(-c2ccc3c(N4C[C@H]5CC[C@@H](C4)N5)nc(OCC4CCCCO4)nc3c2F)c2ccccc2c1 (stereo partly drawn) [P-0775, 4-(4-((1R,5S)-3,8-diazabicyclo[3.2.1]octan-3-yl)-8-fluoro-2-((tetrahydro-2H-pyran-2-yl)methoxy)quinazolin-7-yl)naphthalen-2-ol]
7 | 0.0001 to 10 | 10 to 100 | Oc1cc(-c2ccc3c(N4C[C@H]5CC[C@@H](C4)N5)nc(N4CC5(CCCN5)C4)nc3c2F)c2ccccc2c1 [P-0682, 4-(4-((1R,5S)-3,8-diazabicyclo[3.2.1]octan-3-yl)-8-fluoro-2-(2,5-diazaspiro[3.4]octan-2-yl)quinazolin-7-yl)naphthalen-2-ol]
8 | 0.0001 to 10 | 0.0001 to 10 | Fc1c(-c2c[nH]c3cccc(F)c23)ccc2c(N3C[C@H]4CC[C@@H](C3)N4)nc(OCC34CCCN3CCC4)nc12 [P-0764, 4-((1R,5S)-3,8-diazabicyclo[3.2.1]octan-3-yl)-8-fluoro-7-(4-fluoro-1H-indol-3-yl)-2-((tetrahydro-1H-pyrrolizin-7a(5H)-yl)methoxy)quinazoline]
9 | 10 to 100 | 100 to 1000 | COc1cccc2c(-c3c(F)cc4c(N5C[C@H]6CC[C@@H](C5)N6)nc(OC[C@@H]5CCCN5C)nc4c3F)c[nH]c12 [P-0799, 4-((1R,5S)-3,8-diazabicyclo[3.2.1]octan-3-yl)-6,8-difluoro-7-(7-methoxy-1H-indol-3-yl)-2-(((S)-1-methylpyrrolidin-2-yl)methoxy)quinazoline]
10 | 10 to 100 | 100 to 1000 | CN1CCC[C@H]1COc1nc(N2C[C@H]3CC[C@@H](C2)N3)c2cc(F)c(-c3c[nH]c4c(Cl)cccc34)c(F)c2n1 [P-0800, 4-((1R,5S)-3,8-diazabicyclo[3.2.1]octan-3-yl)-7-(7-chloro-1H-indol-3-yl)-6,8-difluoro-2-(((S)-1-methylpyrrolidin-2-yl)methoxy)quinazoline]
11 | 0.0001 to 10 | 0.0001 to 10 | NC(=O)CCN1[C@@H]2CC[C@H]1CN(c1nc(OCC34CCCN3CCC4)nc3c(F)c(-c4cc(O)cc5ccccc45)ccc13)C2 [P-0642, 3-((1R,5S)-3-(8-fluoro-7-(3-hydroxynaphthalen-1-yl)-2-((tetrahydro-1H-pyrrolizin-7a(5H)-yl)methoxy)quinazolin-4-yl)-3,8-diazabicyclo[3.2.1]octan-8-yl)propanamide]
12 | 0.0001 to 10 | 10 to 100 | Oc1cc(-c2ccc3c(N4C[C@H]5CC[C@@H](C4)N5)nc(OCC4CCOCC4)nc3c2F)c2ccccc2c1 [P-0805, 4-(4-((1R,5S)-3,8-diazabicyclo[3.2.1]octan-3-yl)-8-fluoro-2-((tetrahydro-2H-pyran-4-yl)methoxy)quinazolin-7-yl)naphthalen-2-ol]
13 | 0.0001 to 10 | 0.0001 to 10 | Fc1ccc2[nH]cc(-c3c(Cl)cc4c(N5C[C@H]6CC[C@@H](C5)N6)nc(OCC56CCCN5CCC6)nc4c3F)c2c1F [P-0765, 4-((1R,5S)-3,8-diazabicyclo[3.2.1]octan-3-yl)-6-chloro-7-(4,5-difluoro-1H-indol-3-yl)-8-fluoro-2-((tetrahydro-1H-pyrrolizin-7a(5H)-yl)methoxy)quinazoline]
14 | 0.0001 to 10 | 10 to 100 | Oc1cc(-c2ccc3c(N4C[C@H]5CC[C@@H](C4)N5)nc(N4C[C@@H](O)[C@H](O)C4)nc3c2F)c2ccccc2c1 [P-0685, (3R,4R)-1-(4-((1R,5S)-3,8-diazabicyclo[3.2.1]octan-3-yl)-8-fluoro-7-(3-hydroxynaphthalen-1-yl)quinazolin-2-yl)pyrrolidine-3,4-diol]
15 | 0.0001 to 10 | 10 to 100 | Oc1cc(-c2ccc3c(N4C[C@H]5CC[C@@H](C4)N5)nc(OCC(F)F)nc3c2F)c2ccccc2c1 [P-0749, 4-(4-((1R,5S)-3,8-diazabicyclo[3.2.1]octan-3-yl)-2-(2,2-difluoroethoxy)-8-fluoroquinazolin-7-yl)naphthalen-2-ol]
16 | 0.0001 to 10 | 10 to 100 | CN1CCC[C@H]1COc1nc(N2C[C@H]3CC[C@@H](C2)N3)c2ccc(-c3c[nH]c4cccc(C(F)(F)F)c34)cc2n1 [P-0729, 4-((1R,5S)-3,8-diazabicyclo[3.2.1]octan-3-yl)-2-(((S)-1-methylpyrrolidin-2-yl)methoxy)-7-(4-(trifluoromethyl)-1H-indol-3-yl)quinazoline]
17 | 0.0001 to 10 | 0.0001 to 10 | NC(=O)N1[C@@H]2CC[C@H]1CN(c1nc(OCC34CCCN3CCC4)nc3c(F)c(-c4cc(O)cc5ccccc45)ccc13)C2 [P-0660, (1R,5S)-3-(8-fluoro-7-(3-hydroxynaphthalen-1-yl)-2-((tetrahydro-1H-pyrrolizin-7a(5H)-yl)methoxy)quinazolin-4-yl)-3,8-diazabicyclo[3.2.1]octane-8-carboxamide]
18 | 0.0001 to 10 | 10 to 100 | Oc1cc(-c2ccc3c(N4C[C@H]5CC[C@@H](C4)N5)nc(OCC4CCC(F)(F)C4)nc3c2F)c2ccccc2c1 (stereo partly drawn) [P-0738, 4-(4-((1R,5S)-3,8-diazabicyclo[3.2.1]octan-3-yl)-2-((3,3-difluorocyclopentyl)methoxy)-8-fluoroquinazolin-7-yl)naphthalen-2-ol]
19 | 10 to 100 | 10 to 100 | Cc1ncoc1COc1nc(N2C[C@H]3CC[C@@H](C2)N3)c2ccc(-c3cc(O)cc4ccccc34)c(F)c2n1 [P-0715, 4-(4-((1R,5S)-3,8-diazabicyclo[3.2.1]octan-3-yl)-8-fluoro-2-((4-methyloxazol-5-yl)methoxy)quinazolin-7-yl)naphthalen-2-ol]
20 | 0.0001 to 10 | 10 to 100 | N#CC1CC(COc2nc(N3C[C@H]4CC[C@@H](C3)N4)c3ccc(-c4cc(O)cc5ccccc45)c(F)c3n2)C1 (stereo partly drawn) [P-0751, 3-(((4-((1R,5S)-3,8-diazabicyclo[3.2.1]octan-3-yl)-8-fluoro-7-(3-hydroxynaphthalen-1-yl)quinazolin-2-yl)oxy)methyl)cyclobutane-1-carbonitrile]
21 | 0.0001 to 10 | 0.0001 to 10 | CCc1c(F)ccc2[nH]cc(-c3c(F)cc4c(N5C[C@H]6CC[C@@H](C5)N6)nc(OCC56CCCN5CCC6)nc4c3F)c12 [P-0710, 4-((1R,5S)-3,8-diazabicyclo[3.2.1]octan-3-yl)-7-(4-ethyl-5-fluoro-1H-indol-3-yl)-6,8-difluoro-2-((tetrahydro-1H-pyrrolizin-7a(5H)-yl)methoxy)quinazoline]
22 | 0.0001 to 10 | 10 to 100 | Oc1cc(-c2ccc3c(N4C[C@H]5CC[C@@H](C4)N5)nc(OCC4CCC4)nc3c2F)c2ccccc2c1 [P-0750, 4-(4-((1R,5S)-3,8-diazabicyclo[3.2.1]octan-3-yl)-2-(cyclobutylmethoxy)-8-fluoroquinazolin-7-yl)naphthalen-2-ol]

Row | Compound | IC50 [1] [µM] | IC50 [2] [µM]
23 | CC(C)(O)CCOc1nc(N2C[C@H]3CC[C@@H](C2)N3)c2ccc(-c3cc(O)cc4ccccc34)c(F)c2n1 [P-0656, 4-(4-((1R,5S)-3,8-diazabicyclo[3.2.1]octan-3-yl)-8-fluoro-2-(3-hydroxy-3-methylbutoxy)quinazolin-7-yl)naphthalen-2-ol] | 0.0001 to 10 | 10 to 100
